Source: ChEMBL document CHEMBL1121578, “Synthesis of certain [6:5:6] linear tricyclic nucleosides as potential antitumor agents” (1980)

Key:
L1210 [1] = assay: Concentration required to reduce the growth rate of L-1210 cells to half of the control rate; assay type: functional; details: Mus musculus, read-out: ID50 (the source's name)
Mus musculus [2] = assay: In vivo increase in life span of drug treated (L1210-bearing) mice administered at a dose of 200 mg/kg/injection; assay type: functional
Mus musculus [3] = assay: In vivo increase in life span of drug treated (L1210-bearing) mice administered at a dose of 400 mg/kg/injection; assay type: functional
L1210 [4] = assay: Concentration required to reduce the growth rate of L-1210 cells to half of the control rate; No effect on cell growth of 1E-4 M of the compound; assay type: functional, cell-based; details: Mus musculus
Mus musculus [5] = assay: In vivo increase in life span of drug treated (L1210-bearing) mice administered at a dose of 120 mg/kg/injection; assay type: functional
Mus musculus [6] = assay: In vivo increase in life span of drug treated (L1210-bearing) mice administered at a dose of 600 mg/kg/injection; assay type: functional
Mus musculus [7] = assay: In vivo increase in life span of drug treated (L1210-bearing) mice administered at a dose of 320 mg/kg/injection; assay type: functional
Mus musculus [8] = assay: In vivo increase in life span of drug treated (L1210-bearing) mice administered at a dose of 100 mg/kg/injection; assay type: functional
Mus musculus [9] = assay: In vivo increase in life span of drug treated (L1210-bearing) mice administered at a dose of 25 mg/kg/injection; assay type: functional
Mus musculus [10] = assay: In vivo increase in life span of drug treated (P388-bearing) mice administered at a dose of 50 mg/kg/injection; assay type: functional
Mus musculus [11] = assay: In vivo increase in life span of drug treated (L1210-bearing) mice administered at a dose of 8 mg/kg/injection; assay type: functional
Mus musculus [12] = assay: In vivo increase in life span of drug treated (P388-bearing) mice administered at a dose of 200 mg/kg/injection; assay type: functional

Row | Structure (SMILES) | IC50 (L1210 [1]) [µM] | ILS at 200 mg/kg (Mus musculus [2]) [%] | also measured
1 | Nc1nc2c(c(=O)[nH]1)c1c(N)ncnc1n2[C@@H]1O[C@H](CO)[C@@H](O)[C@H]1O | 2.5 | 13 | 
2 | Nc1ncnc2c1c1c(O)nc(S)nc1n2C1O[C@H](CO)[C@@H](O)[C@H]1O (stereo partly specified) | 7 |  | ILS at 400 mg/kg (Mus musculus [3]): 14%
3 | C=CCSc1ncnc2c1c1c(N)ncnc1n2C1O[C@H](CO)[C@@H](O)[C@H]1O (stereo partly specified) | 110 | 9 | 
4 | CSc1nc(O)c2c3c(N)ncnc3n(C3O[C@H](CO)[C@@H](O)[C@H]3O)c2n1 (stereo partly specified) | 80 | 0 | 
5 | CSc1nc(N)c2c3c(N)ncnc3n(C3O[C@H](CO)[C@@H](O)[C@H]3O)c2n1 (stereo partly specified) |  |  | ID50 (L1210 [4]): No effect; ILS at 400 mg/kg (Mus musculus [3]): 1%
6 | Nc1ncnc2c1c1c(S)nc(S)nc1n2C1O[C@H](CO)[C@@H](O)[C@H]1O (stereo partly specified) | 6.1 |  | ILS at 400 mg/kg (Mus musculus [3]): 10%
7 | NC(=O)c1c(N)n(C2O[C@H](CO)[C@@H](O)[C@H]2O)c2ncnc(N)c12 (stereo partly specified) | 16 |  | ILS at 120 mg/kg (Mus musculus [5]): 30%
8 | Nc1ncnc2c1c1c(O)nc(O)nc1n2C1O[C@H](CO)[C@@H](O)[C@H]1O (stereo partly specified) | ~100 |  | ILS at 400 mg/kg (Mus musculus [3]): 108%
9 | N#Cc1c(Br)n(C2O[C@H](CO)[C@@H](O)[C@H]2O)c2ncnc(N)c12 (stereo partly specified) | 0.21 |  | ILS at 600 mg/kg (Mus musculus [6]): 22%
10 | Nc1ncnc2c1c1cncnc1n2C1O[C@H](CO)[C@@H](O)[C@H]1O (stereo partly specified) | > 100 | 2 | 
11 | Nc1ncnc2c1c1cnc(O)nc1n2C1O[C@H](CO)[C@@H](O)[C@H]1O (stereo partly specified) | 75 |  | ILS at 320 mg/kg (Mus musculus [7]): 10%
12 | Nc1ncnc2c1c1c(S)ncnc1n2C1O[C@H](CO)[C@@H](O)[C@H]1O (stereo partly specified) | 2 |  | ILS at 100 mg/kg (Mus musculus [8]): 38%
13 | NC(=S)c1c(N)n(C2O[C@H](CO)[C@@H](O)[C@H]2O)c2ncnc(N)c12 (stereo partly specified) | 0.22 |  | ILS at 25 mg/kg (Mus musculus [9]): 37%
14 | Nc1ncnc2c1c1c(N)nc(O)nc1n2C1O[C@H](CO)[C@@H](O)[C@H]1O (stereo partly specified) | 120 | 21 | 
15 | CSc1nc(SC)c2c3c(N)ncnc3n(C3O[C@H](CO)[C@@H](O)[C@H]3O)c2n1 (stereo partly specified) | 78 | 45 | 
16 | Nc1ncnc2c1c1c(O)ncnc1n2C1O[C@H](CO)[C@@H](O)[C@H]1O (stereo partly specified) | 63 |  | ILS at 100 mg/kg (Mus musculus [8]): 20%; ILS at 50 mg/kg (Mus musculus [10]): 33%
17 | CSc1nc(O)nc2c1c1c(N)ncnc1n2C1O[C@H](CO)[C@@H](O)[C@H]1O (stereo partly specified) |  | 4 | ID50 (L1210 [4]): No effect
18 | N#Cc1c(N)n(C2O[C@H](CO)[C@@H](O)[C@H]2O)c2ncnc(N)c12 (stereo partly specified) | 0.18 |  | ILS at 8 mg/kg (Mus musculus [11]): 26%
19 | CSc1ncnc2c1c1c(N)ncnc1n2C1O[C@H](CO)[C@@H](O)[C@H]1O (stereo partly specified) | 8.6 | 9 | ILS at 200 mg/kg (Mus musculus [12]): 5%
20 | Nc1ncnc2c1c1c(N)ncnc1n2[C@@H]1O[C@H](CO)[C@@H](O)[C@H]1O |  |  | ILS at 100 mg/kg (Mus musculus [8]): -9%; ID50 (L1210 [4]): No effect
21 | Nc1ncnc2c1c1c(SCc3ccc([N+](=O)[O-])cc3)ncnc1n2C1O[C@H](CO)[C@@H](O)[C@H]1O (stereo partly specified) | 45 | -2 | 
22 | Nc1ncnc2c1c1c(=S)[nH]c(=O)[nH]c1n2C1O[C@H](CO)[C@@H](O)[C@H]1O (stereo partly specified) | 11 |  | ILS at 100 mg/kg (Mus musculus [8]): 4%
